Results taken from the supplement of paper PMC9265050, “Inhibition of RNA Binding in SND1 Increases the Levels of miR-1-3p and Sensitizes Cancer Cells to Navitoclax” (Cancers, 2022).

Test system: SW480
Test: drug sensitivity score (DSS, integrated dose-response area); higher = more sensitive (stronger viability reduction); extreme values may be limits of the assay
Outline: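 The drug sensitivity score is the integrated area under a fitted non-linear dose–response model. It was derived from SW480 cells with doxycycline-inducible control or SND1-targeting shRNA, induced with 0.1 µg/mL doxycycline for 7 days and plated at 1000 cells per well on 384-well plates of 525 commercially available small-molecule inhibitors at five concentrations. CellTiter-Glo measured viability after 72 h.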

[1] = shRNA: SND1 shRNA1 (SND1 silenced)
[2] = shRNA: control shRNA (non-targeting)
[3] = shRNA: SND1 shRNA2 (SND1 silenced)

Structure (SMILES) | drug sensitivity score [1] | drug sensitivity score [2] | drug sensitivity score [3]
Nc1nc(NC2CC2)cc(-c2cccc(Cl)c2Cl)n1 [TH588] | 6.2 DSS | 6.3 DSS | –
Cc1cc([C@@H](C)Nc2ccccc2C(=O)O)c2nc(N3CCOCC3)cc(=O)n2c1 [AZD-6482] | 0 DSS | 3 DSS | 4.3 DSS
CO[C@H]1C[C@@H]2CC[C@@H](C)[C@@](O)(O2)C(=O)C(=O)N2CCCC[C@H]2C(=O)O[C@H]([C@H](C)C[C@@H]2CC[C@@H](OCCO)[C@H](OC)C2)CC(=O)[C@H](C)/C=C(\C)[C@@H](O)[C@@H](OC)C(=O)[C@H](C)C[C@H](C)/C=C/C=C/C=C/1C [Everolimus] | 7.5 DSS | 0.4 DSS | –
Cc1c(C(=O)Nc2ccc(N3C[C@@H](C)O[C@@H](C)C3)nc2)cccc1-c1ccc(OC(F)(F)F)cc1 [Sonidegib] | 2.9 DSS | 2.8 DSS | 5.7 DSS
Nc1nc2[nH]cc(CCc3ccc(C(=O)N[C@@H](CCC(=O)O)C(=O)O)cc3)c2c(=O)[nH]1 [Pemetrexed] | 9.9 DSS | 6.5 DSS | –
O=C(c1cc(Cc2n[nH]c(=O)c3ccccc23)ccc1F)N1CCN(C(=O)C2CC2)CC1 [Olaparib] | 2.7 DSS | 0 DSS | 0 DSS
O=C(CCBr)N1CCN(C(=O)CCBr)CC1 [Pipobroman] | 0.1 DSS | 0.1 DSS | 1.5 DSS
N#CCNC(=O)c1ccc(-c2ccnc(Nc3ccc(N4CCOCC4)cc3)n2)cc1 [Momelotinib] | 3.8 DSS | 1.9 DSS | 2.1 DSS
COc1cc2nccc(Oc3ccc(NC(=O)C4(C(=O)Nc5ccc(F)cc5)CC4)cc3)c2cc1OC [Cabozantinib] | 0 DSS | 0.6 DSS | 2.7 DSS
CN(c1ncccc1CNc1nc(Nc2ccc3c(c2)CC(=O)N3)ncc1C(F)(F)F)S(C)(=O)=O | 4.9 DSS | 3.4 DSS | 3.5 DSS
C[C@@H](Oc1cc(-n2cnc3ccc(CN4CCN(C)CC4)cc32)sc1C(N)=O)c1ccccc1C(F)(F)F | 25.1 DSS | 23.6 DSS | –
CCNC(=O)CCC/C=C\C[C@@H]1[C@@H](/C=C/[C@@H](O)CCc2ccccc2)[C@H](O)C[C@@H]1O [Bimatoprost] | 0 DSS | 0 DSS | 0 DSS
Cc1ccccc1C(C(=O)NC1CCCCC1)N(C(=O)Cn1ccnc1C)c1cccc(F)c1 (stereo not drawn) [AGI-5198] | 0 DSS | 3.6 DSS | –
N[C@@H](Cc1ccc(N(CCCl)CCCl)cc1)C(=O)O [Melphalan] | 0 DSS | 0 DSS | –
O=C(NC[C@H](O)CO)c1ccncc1Nc1ccc(I)cc1F [Pimasertib] | 26.3 DSS | 7.4 DSS | 16.5 DSS
CN1CCC(COc2cnc(-c3cccc(Cn4nc(-c5cccc(C#N)c5)ccc4=O)c3)nc2)CC1 | 0 DSS | 0 DSS | 0 DSS
CCN(CC)C(=S)SSC(=S)N(CC)CC [Disulfiram] | 29.7 DSS | 28.6 DSS | –
O=C(c1ccc(/C=C/c2n[nH]c3ccccc23)cc1)N1CCNCC1 [KW-2449] | 0.7 DSS | 0.2 DSS | 0 DSS
CNc1ncc2cc(-c3cc(NC(=O)NCCC(C)(C)C)c(F)cc3C)c(C)nc2n1 | 13.4 DSS | 9.7 DSS | 6.6 DSS
CCc1cc(Nc2nccc(-c3c(-c4ccc(OC)c(C(=O)Nc5c(F)cccc5F)c4)nc4ccccn34)n2)c(OC)cc1N1CCC(N2CCN(S(C)(=O)=O)CC2)CC1 | 0.2 DSS | 0 DSS | 2.1 DSS
C#Cc1cccc(Nc2ncnc3cc4c(cc23)OCCOCCOCCO4)c1 [Icotinib] | 1.1 DSS | 1.1 DSS | 3.8 DSS
C[C@]1(c2nc3c(C(N)=O)cccc3[nH]2)CCCN1 [Veliparib] | 0 DSS | 0 DSS | 0 DSS
CC[C@H](NC(=O)[C@H](C)NC)C(=O)N1C[C@@H](O)C[C@H]1Cc1c(-c2[nH]c3cc(F)ccc3c2C[C@@H]2C[C@H](O)CN2C(=O)[C@H](CC)NC(=O)[C@H](C)NC)[nH]c2cc(F)ccc12 [Birinapant] | 0 DSS | 0 DSS | 0 DSS
O=C(c1ccc(C(=O)N2CCC(N3CCCC3)CC2)c(Nc2ccccc2)c1)N1CCC(N2CCCC2)CC1 [UNC1215] | 2.6 DSS | 1.1 DSS | 1.9 DSS
C[C@H]1Oc2cc(cnc2N)-c2c(nn(C)c2C#N)CN(C)C(=O)c2ccc(F)cc21 | 0.2 DSS | 1.9 DSS | 0.4 DSS
